# Measured values from ChEMBL document CHEMBL5154653, “The discovery of 1, 3-diamino-7H-pyrrol[3, 2-f]quinazoline compounds as potent antimicrobial antifolates” (Eur J Med Chem, 2022).
# Activity calls are given as the source filed them. No cut-off for these calls is given here.
# Key:
# [1] = molecular target: Thymidylate synthase (Escherichia coli K-12) (UniProt P0A884); experiment: Binding affinity to Escherichia coli N-terminal hexahistidine tagged TS assessed as change in gibbs free energy at 0.2 mM by isothermal titration calorimetry method
# Escherichia coli [2] = experiment: Inhibition of Escherichia coli C-terminal hexahistidine tagged DHFR at 5 uM incubated for 5 mins in presence of NADPH by measuring oxidation of NADPH to NADP+
# Escherichia coli [3] = experiment: Bactericidal activity against Escherichia coli ATCC 25922 at 30 pg/ml measured for 24 hrs in presence of SMZ by time-kill assay; assay type: functional, organism-based
# Escherichia coli [4] = experiment: Bactericidal activity against Escherichia coli ATCC 25922 assessed as reductions in colony forming unit at 8 times MIC measured for 24 hrs by time-kill assay; assay type: functional
# Acinetobacter baumannii [5] = experiment: Antibacterial activity against multi drug resistant Acinetobacter baumannii CCPM(A)-100902 assessed as reduction in microbial growth after 16 to 18 hrs by microbroth dilution method; assay type: functional; details: time 16-18 hrs
# Escherichia coli [6] = experiment: In vivo Antibacterial activity against Escherichia coli ATCC 25922 in septicemia ICR mouse model assessed as increase in mouse survival time administered iv measured after 14 hrs; assay type: functional, organism-based; details: dose 7.5-15 mg/kg, DDE = dose-dependent effect
# Escherichia coli [7] = experiment: In vivo Antibacterial activity against Escherichia coli ATCC 25922 in septicemia ICR mouse model assessed as increase in mouse survival time at 15 mg/kg,iv measured after 14 hrs; assay type: functional
# Klebsiella pneumoniae [8] = experiment: Antibacterial activity against ESBL-producing Klebsiella pneumoniae CCPM(A)-081514 assessed as reduction in microbial growth after 16 to 18 hrs by microbroth dilution method; assay type: functional; details: time 16-18 hrs
# Escherichia coli [9] = experiment: Bactericidal activity against Escherichia coli ATCC 25922 at 0.5 to 8 times MIC by counting bacterial colonies time-kill assay; assay type: functional, organism-based; details: time <= 24.0 hrs, TDE = time-dependent effect
# Klebsiella pneumoniae [10] = experiment: Antibacterial activity against ESBL-producing Klebsiella pneumoniae ATCC 700603 assessed as reduction in microbial growth after 16 to 18 hrs by microbroth dilution method; assay type: functional; details: time 16-18 hrs
# Escherichia coli [11] = experiment: Binding affinity to Escherichia coli C-terminal hexahistidine tagged DHFR assessed as change in gibbs free energy at 0.2 mM by isothermal titration calorimetry method
# Staphylococcus aureus [12] = experiment: Antibacterial activity against methicillin-resistant Staphylococcus aureus ATCC 43300 assessed as reduction in microbial growth after 16 to 18 hrs by microbroth dilution method; assay type: functional; details: time 16-18 hrs
# Escherichia coli [13] = experiment: Antibacterial activity against Escherichia coli ATCC 25922 assessed as blockage of folate pathway after 16 to 18 hrs in presence of thymine by microbroth dilution method; assay type: functional; details: time 16-18 hrs
# Escherichia coli [14] = experiment: Antibacterial activity against Escherichia coli ATCC 25922 assessed as reduction in microbial growth after 16 to 18 hrs by microbroth dilution method; assay type: functional; details: time 16-18 hrs
# [15] = molecular target: Thymidylate synthase (Escherichia coli K-12) (UniProt P0A884); experiment: Binding affinity to Escherichia coli […] hexahistidine-tagged TS at 20 uM by biolayer interferometry assay
# Enterococcus faecium = experiment: Antibacterial activity against vancomycin-resistant Enterococcus faecium ATCC 51559 assessed as reduction in microbial growth after 16 to 18 hrs by microbroth dilution method; assay type: functional; details: time 16-18 hrs
# Escherichia coli [16] = experiment: Bactericidal activity against Escherichia coli ATCC 25922 at 0.5 to 8 times MIC by counting bacterial colonies upto 24 hrs time-kill assay; assay type: functional, organism-based; details: DDE = dose-dependent effect
# Escherichia coli [17] = experiment: In vivo Antibacterial activity against Escherichia coli ATCC 25922 in septicemia ICR mouse model assessed as reduction in bacterial load at 50 mg/kg, iv measured after 2 to 4 hrs; assay type: functional; details: time 2-4 hrs
# Klebsiella pneumoniae [18] = experiment: Synergistic antibacterial activity against Klebsiella pneumoniae CCPM(A)-081514 assessed as fractional inhibitory concentration index at 0.5 ug/ml measured for 24 hrs in presence of SMZ by microdilution checkerboard assay; assay type: functional; details: dose 0.5 µg/ml
# Klebsiella pneumoniae [19] = experiment: Bactericidal activity against Klebsiella pneumoniae CCPM(A)-081514 at 0.5 ug/ml measured for 24 hrs in presence of SMZ by time-kill assay; assay type: functional, organism-based; details: dose 0.5 µg/ml
# [20] = Inhibition of Escherichia coli C-terminal hexahistidine tagged DHFR incubated for 5 mins in presence of NADPH by measuring oxidation of NADPH to NADP+
# Escherichia coli [21] = experiment: Binding affinity to Escherichia coli C-terminal hexahistidine tagged DHFR assessed as change in entropy at 0.2 mM by isothermal titration calorimetry method
# Thymidylate synthase = Thymidylate synthase (Escherichia coli K-12, UniProt P0A884); experiment: Inhibition of Escherichia coli N-terminal hexahstidine-tagged TS by steady-state kinetic analysis
# Escherichia coli [22] = experiment: Bactericidal activity against Escherichia coli ATCC 25922 assessed as suppression of regrowth of colonies at 4 to 8 times MIC measured for 24 hrs by time-kill assay; assay type: functional, organism-based
# Klebsiella pneumoniae [23] = experiment: Antibacterial activity against ESBL-producing Klebsiella pneumoniae CCPM(A)-081568 assessed as reduction in microbial growth after 16 to 18 hrs by microbroth dilution method; assay type: functional; details: time 16-18 hrs
# Klebsiella pneumoniae [24] = experiment: Antibacterial activity against Klebsiella pneumoniae ATCC 700603 assessed as reduction in microbial growth after 16 to 18 hrs by microbroth dilution method; assay type: functional; details: time 16-18 hrs
# Staphylococcus aureus [25] = experiment: Antibacterial activity against Staphylococcus aureus ATCC 29213 assessed as reduction in microbial growth after 16 to 18 hrs by microbroth dilution method; assay type: functional; details: time 16-18 hrs
# Acinetobacter baumannii [26] = experiment: Antibacterial activity against Acinetobacter baumannii ATCC 19606 assessed as reduction in microbial growth after 16 to 18 hrs by microbroth dilution method; assay type: functional; details: time 16-18 hrs
# Acinetobacter baumannii [27] = experiment: Antibacterial activity against Acinetobacter baumannii CCPM(A)-100946 assessed as reduction in microbial growth after 16 to 18 hrs by microbroth dilution method; assay type: functional; details: time 16-18 hrs
# [28] = molecular target: Thymidylate synthase (Escherichia coli K-12) (UniProt P0A884); experiment: Inhibition of Escherichia coli N-terminal hexahstidine-tagged TS at 500 uM by steady-state kinetic analysis
# Acinetobacter baumannii [29] = experiment: Antibacterial activity against Acinetobacter baumannii CCPM(A)-100947 assessed as reduction in microbial growth after 16 to 18 hrs by microbroth dilution method; assay type: functional; details: time 16-18 hrs
# Escherichia coli [30] = experiment: Antibacterial activity against Escherichia coli ATCC 25922 assessed as blockage of folate pathway after 16 to 18 hrs in presence of thymine by measuring fold increase in MIC by microbroth dilution method; assay type: functional; details: time 16-18 hrs
# Acinetobacter baumannii [31] = experiment: Antibacterial activity against multi drug resistant Acinetobacter baumannii CCPM(A)-1100708 assessed as reduction in microbial growth after 16 to 18 hrs by microbroth dilution method; assay type: functional; details: time 16-18 hrs
# Escherichia coli [32] = experiment: Antibacterial activity against Escherichia coli CCPM(A)-0715118 assessed as reduction in microbial growth after 16 to 18 hrs by microbroth dilution method; assay type: functional; details: time 16-18 hrs
# Escherichia coli [33] = experiment: Potency index ratio of IC50 for TMP to IC50 for test compound for inhibition of Escherichia coli C-terminal hexahistidine tagged DHFR
# Escherichia coli [34] = experiment: Synergistic antibacterial activity against Escherichia coli ATCC 25922 assessed as fractional inhibitory concentration index at 30 pg/ml measured for 24 hrs in presence of SMZ by microdilution checkerboard assay; assay type: functional
# [35] = molecular target: Thymidylate synthase (Escherichia coli K-12) (UniProt P0A884); experiment: Binding affinity to Escherichia coli N-terminal hexahistidine tagged TS assessed as change in entropy at 0.2 mM by isothermal titration calorimetry method
# [36] = Binding affinity to Escherichia coli C-terminal hexahistidine tagged DHFR assessed as dissociation constant by isothermal titration calorimetry method
# Acinetobacter baumannii [37] = experiment: Antibacterial activity against multi drug resistant Acinetobacter baumannii CCPM(A)-100903 assessed as reduction in microbial growth after 16 to 18 hrs by microbroth dilution method; assay type: functional; details: time 16-18 hrs
# Escherichia coli [38] = experiment: In vivo Antibacterial activity against Escherichia coli ATCC 25922 in septicemia ICR mouse model assessed as increase in mouse survival rate administered iv measured […]; assay type: functional, organism-based; details: dose 7.5-15 mg/kg, DDE = dose-dependent effect
# Escherichia coli [39] = experiment: Antibacterial activity against ESBL-producing Escherichia coli CCPM(A)-0715117 assessed as reduction in microbial growth after 16 to 18 hrs by microbroth dilution method; assay type: functional; details: time 16-18 hrs
# Escherichia coli [40] = experiment: Binding affinity to Escherichia coli C-terminal hexahistidine tagged DHFR assessed as change in enthalpy at 0.2 mM by isothermal titration calorimetry method
# Klebsiella pneumoniae [41] = experiment: Antibacterial activity against Klebsiella pneumoniae CCPM(A)-081018 assessed as reduction in microbial growth after 16 to 18 hrs by microbroth dilution method; assay type: functional; details: time 16-18 hrs
# Escherichia coli [42] = experiment: Antibacterial activity against ESBL-producing Escherichia coli CCPM(A)-0715142 assessed as reduction in microbial growth after 16 to 18 hrs by microbroth dilution method; assay type: functional; details: time 16-18 hrs
# Escherichia coli [43] = experiment: Antibacterial activity against Escherichia coli ATCC 25922 overexpressing DHFR assessed as reduction in microbial growth after 16 to 18 hrs by microbroth dilution method; assay type: functional; details: time 16-18 hrs
# Escherichia coli [44] = experiment: Antibacterial activity against ESBL-producing Escherichia coli CCPM(A)-071030 assessed as reduction in microbial growth after 16 to 18 hrs by microbroth dilution method; assay type: functional; details: time 16-18 hrs
# Escherichia coli [45] = experiment: Antibacterial activity against Escherichia coli ATCC 25922 overexpressing DHFR assessed as fold increase in MIC after 16 to 18 hrs by microbroth dilution method; assay type: functional; details: time 16-18 hrs
# Chain of Thymidylate synthase (Escherichia coli K-12) (P0A884 whole entry, looked up): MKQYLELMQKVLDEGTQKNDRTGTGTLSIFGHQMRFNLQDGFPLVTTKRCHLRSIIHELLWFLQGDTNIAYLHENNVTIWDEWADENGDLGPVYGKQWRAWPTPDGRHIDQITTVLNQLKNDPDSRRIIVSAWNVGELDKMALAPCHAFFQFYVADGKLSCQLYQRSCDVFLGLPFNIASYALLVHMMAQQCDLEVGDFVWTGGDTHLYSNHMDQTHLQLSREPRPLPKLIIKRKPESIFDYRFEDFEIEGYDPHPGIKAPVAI
# Chain of Thymidylate synthase (P0A884 whole entry): as the sequence (P0A884 whole entry, looked up) above
smiles,measurement,setting,value
Nc1nc(N)c2c(ccc3c2ccn3Cc2ccccc2F)n1,deltaG,[1],-5.82 kcal/mol
same,inhibition,Escherichia coli [2],76.2%
same,Activity,Escherichia coli [3],Active
same,Activity,Escherichia coli [4],3 log10CFU/ml
same,MIC,Acinetobacter baumannii [5],0.03 µg/mL
same,Activity,Escherichia coli [6],Dde
same,Activity,Escherichia coli [7],50%
same,MIC,Klebsiella pneumoniae [8],2 µg/mL
same,Activity,Escherichia coli [9],Tde
same,MIC,Klebsiella pneumoniae [10],1 µg/mL
same,deltaG,Escherichia coli [11],-9.14 kcal/mol
same,MIC,Staphylococcus aureus [12],0.5 µg/mL
same,MIC,Escherichia coli [13],8 µg/mL
same,MIC,Escherichia coli [14],0.002 µg/mL
same,Activity,[15],Active
same,MIC,Enterococcus faecium,0.03 µg/mL
same,Activity,Escherichia coli [16],Dde
same,Activity,Escherichia coli [17],100 CFU/ml
same,fractional inhibitory concentration index (FICI),Klebsiella pneumoniae [18],0.07
same,Activity,Klebsiella pneumoniae [19],Active
same,IC50,[20],2.36 nM
same,TdeltaS,Escherichia coli [21],-19.4 kcal/mol
same,IC50,Thymidylate synthase,11200 nM
same,Activity,Escherichia coli [22],Active
same,MIC,Klebsiella pneumoniae [23],0.03 µg/mL
same,MIC,Klebsiella pneumoniae [24],1 µg/mL
same,MIC,Staphylococcus aureus [25],0.03 µg/mL
same,MIC,Acinetobacter baumannii [26],1 µg/mL
same,MIC,Acinetobacter baumannii [27],0.06 µg/mL
same,inhibition,[28],50%
same,MIC,Acinetobacter baumannii [29],0.125 µg/mL
same,fold change (FC),Escherichia coli [30],4000
same,MIC,Acinetobacter baumannii [31],8 µg/mL
same,MIC,Escherichia coli [32],16 µg/mL
same,Ratio IC50,Escherichia coli [33],20
same,fractional inhibitory concentration index (FICI),Escherichia coli [34],0.02
same,TdeltaS,[35],-20.9 kcal/mol
same,Kd,[36],1.57 nM
same,MIC,Acinetobacter baumannii [37],8 µg/mL
same,Activity,Escherichia coli [38],Dde
same,MIC,Escherichia coli [39],0.002 µg/mL
same,deltaH,Escherichia coli [40],-20.4 kcal/mol
same,MIC,Klebsiella pneumoniae [41],16 µg/mL
same,MIC,Escherichia coli [42],0.002 µg/mL
same,MIC,Escherichia coli [43],8 µg/mL
same,MIC,Escherichia coli [44],0.06 µg/mL
Nc1nc(N)c2c(ccc3c2ccn3Cc2cccs2)n1,inhibition,Escherichia coli [2],92.8%
same,MIC,Acinetobacter baumannii [5],0.25 µg/mL
same,MIC,Klebsiella pneumoniae [8],0.06 µg/mL
same,MIC,Klebsiella pneumoniae [10],≤ 0.25 µg/mL
same,deltaG,Escherichia coli [11],-11.3 kcal/mol
same,MIC,Staphylococcus aureus [12],0.25 µg/mL
same,MIC,Escherichia coli [13],16 µg/mL
same,MIC,Escherichia coli [14],0.002 µg/mL
same,Activity,[15],Active
same,MIC,Enterococcus faecium,0.03 µg/mL
same,IC50,[20],15.9 nM
same,deltaS,Escherichia coli [21],-24.1 cal/mol/deg
same,IC50,Thymidylate synthase,11400 nM
same,MIC,Klebsiella pneumoniae [23],0.002 µg/mL
same,MIC,Klebsiella pneumoniae [24],1 µg/mL
same,MIC,Staphylococcus aureus [25],0.03 µg/mL
same,MIC,Acinetobacter baumannii [26],1 µg/mL
same,MIC,Acinetobacter baumannii [27],8 µg/mL
same,inhibition,[28],50%
same,MIC,Acinetobacter baumannii [29],0.5 µg/mL
same,fold change (FC),Escherichia coli [30],8000
same,fold change (FC),Escherichia coli [45],4000
same,MIC,Acinetobacter baumannii [31],8 µg/mL
same,MIC,Escherichia coli [32],16 µg/mL
same,Kd,[36],4.85 nM
same,MIC,Acinetobacter baumannii [37],8 µg/mL
same,MIC,Escherichia coli [39],0.002 µg/mL
same,deltaH,Escherichia coli [40],-18.5 kcal/mol
same,MIC,Klebsiella pneumoniae [41],16 µg/mL
same,MIC,Escherichia coli [42],0.002 µg/mL
same,MIC,Escherichia coli [43],8 µg/mL
same,MIC,Escherichia coli [44],0.002 µg/mL
